From patent US10829778B2, “Plants having increased tolerance to herbicides” (BASF SE, priority 2013, dated 2020)

Experiments:
Kordia HPPD = assay: HPPD activity assay, wildtype enzyme; type: biochemical; conditions: Table 12, normalized to Arabidopsis HPPD
Description: (§1) HPPD produces homogentisic acid and CO2 from 4-hydroxyphenylpyruvate (4-HPP) and O2. The activity assay for HPPD is based on the analysis of homogentisic acid by reversed phase HPLC.
(§2) The assay mixture can contain 150 mM potassium phosphate buffer pH 7.0, 50 mM L-ascorbic acid, 100 μM Catalase (Sigma-Aldrich), 1 μM FeSO4 and 0.2 units of purified HPPD enzyme in a total volume of 505 μl. 1 unit is defined as the amount of enzyme that is required to produce 1 nmol of HGA per minute at 20° C.
(§3) After a preincubation of 30 min the reaction is started by adding 4-HPP to a final concentration of 0.05 mM. The reaction is allowed to proceed for 45 min at room temperature. The reaction is stopped by the addition of 50 μl of 4.5 M phosphoric acid. The sample is filtered using a […] pore size PVDF filtration device.
(§4) 5 μl of the cleared sample is analyzed on an UPLC HSS T3 column (particle size 1.8 μm, dimensions 2.1×50 mm; Waters) by isocratic elution using 90% 20 mM NaH2PO4 pH 2.2, 10% methanol (v/v).
(§5) HGA is detected electrochemically at 750 mV (mode: DC; polarity: positive) and quantified by integrating peak areas (Empower software; Waters).
(§6) Inhibitors are dissolved in DMSO (dimethylsulfoxide) to a concentration of 0.5 mM. From this stock solution serial five-fold dilutions are prepared in DMSO, which are used in the assay. The respective inhibitor solution accounts for 1% of the assay volume. Thus, final inhibitor concentrations range from […], respectively. Activities are normalized by setting the uninhibited enzyme activity to 100%. IC50 values are calculated using non-linear regression.
(§7) Using methods which are described in the above examples or well known in the art, purified, recombinant wildtype HPPD enzymes are characterized with respect to their kinetic properties and sensitivity towards HPPD inhibiting herbicides. Apparent michaelis constants (Km) and maximal reaction velocities (Vmax) are calculated by non-linear regression with the software GraphPad Prism 5 (GraphPad Software, La Jolla, USA) using a substrate inhibition model. Apparent kcat values are calculated from Vmax assuming 100% purity of the enzyme preparation. Weighted means (by standard error) of Km and IC50 values are calculated from at least three independent experiments. The Cheng-Prusoff equation for competitive inhibition (Cheng, Y. C.; Prusoff, W. H. Biochem Pharmacol 1973, 22, 3099-3108) is used to calculate dissociation constants (Ki).
(§8) Field performance of the HPPD enzyme, which is used as a herbicide tolerance trait may depend not only on its lack of sensitivity towards HPPD inhibiting herbicides but also on its activity. To assess the potential performance of a herbicide tolerance trait a tolerance index (TI) is calculated using the following formula: […]

Lolium HPPD = assay: HPPD activity assay, wildtype enzyme; type: biochemical; conditions: Table 12, normalized to Arabidopsis HPPD
Description: as §1, §2, §3, §4, §5, §6, §7, §8

[1] = test system: Rhodococcus HPPD (Seq ID 44); assay: HPPD activity assay, wildtype enzyme; type: biochemical; conditions: Table 12, normalized to Arabidopsis HPPD; Rhodococcus (Seq ID 44)
Description: as §1, §2, §3, §4, §5, §6, §7, §8

[2] = test system: Rhodococcus HPPD (Seq ID 46); assay: HPPD activity assay, wildtype enzyme; type: biochemical; conditions: Table 12, normalized to Arabidopsis HPPD; Rhodococcus (Seq ID 46)
Description: as §1, §2, §3, §4, §5, §6, §7, §8

[3] = test system: non-transgenic Arabidopsis plants (WT); assay: Greenhouse herbicide spray test, Arabidopsis plants (T2); type: in vivo, Arabidopsis thaliana; conditions: two weeks after treatment
From the text: (§9) For post emergence treatment, the test plants are first grown to a height of 3 to 15 cm, depending on the plant habit, and only then treated with the herbicides. For this purpose, the test plants are either sown directly and grown in the same containers, or they are first grown separately and transplanted into the test containers a few days prior to treatment.
(§10) Additionally, T1 and T2 transgenic Arabidopsis plants can be tested for improved tolerance to N-heterocyclyl-arylcarboxamides in a greenhouse studies. Herbicide injury scoring is done 2-3 weeks after treatment and is rated on a scale of 0 to 100%, 0% being no injury and 100% being complete death.

[4] = test system: transgenic Arabidopsis plants expressing AtHPPD M335H, P336A, E363Q; assay: Greenhouse herbicide spray test, transgenic Arabidopsis plants (T2); type: in vivo, Arabidopsis thaliana; conditions: two weeks after treatment
From the text: as §9, §10

[5] = test system: transgenic Arabidopsis plants expressing AtHPPD M335Y, P336A, E363Q; assay: as above; type: in vivo, Arabidopsis thaliana; conditions: two weeks after treatment
From the text: as §9, §10

[6] = test system: transgenic Arabidopsis plants expressing HvHPPD L320H, P321A; assay: as above; type: in vivo, Arabidopsis thaliana; conditions: for Injury evaluation: P321A, two weeks after treatment
From the text: as §9, §10

[7] = test system: transgenic Arabidopsis plants expressing HvHPPD L320H; assay: as above; type: in vivo, Arabidopsis thaliana; conditions: for Injury evaluation: HvHPPD L320H, two weeks after treatment
From the text: as §9, §10

Cc1nonc1NC(=O)c1ccc(S(C)(=O)=O)c(S(C)(=O)=O)c1C [Inhibitor 1, 2-methyl-N-(4-methyl-1,2,5-oxadiazol-3-yl)-3,4-bis(methylsulfonyl)benzamide]
Normalized tolerance index TI Inhibitor 1 (Kordia HPPD): 3.5
Normalized tolerance index TI Inhibitor 1 (Lolium HPPD): 1.7
Normalized tolerance index TI Inhibitor 1 [1]: 183.5
Normalized tolerance index TI Inhibitor 1 [2]: 12.4
Injury evaluation ([3]; WT (control of AtHPPD events), 1.56 g/ha): 92%
Injury evaluation ([3]; WT (control of AtHPPD events), 3.125 g/ha): 91%
Injury evaluation ([3]; WT (control of AtHPPD events), 6.25 g/ha): 97%
Injury evaluation ([3]; WT (control of AtHPPD events), 12.5 g/ha): 97%
Injury evaluation ([3]; WT (control of HvHPPD events), 1.56 g/ha): 98%
Injury evaluation ([3]; WT (control of HvHPPD events), 3.125 g/ha): 98%
Injury evaluation ([3]; WT (control of HvHPPD events), 6.25 g/ha): 100%
Injury evaluation ([3]; WT (control of HvHPPD events), 12.5 g/ha): 100%
Injury evaluation ([4]; 1.56 g/ha): 3%
Injury evaluation ([4]; 3.125 g/ha): 13%
Injury evaluation ([4]; 6.25 g/ha): 42%
Injury evaluation ([4]; 12.5 g/ha): 42%
Injury evaluation ([5]; 1.56 g/ha): 12%
Injury evaluation ([5]; 3.125 g/ha): 23%
Injury evaluation ([5]; 6.25 g/ha): 58%
Injury evaluation ([5]; 12.5 g/ha): 52%
increased tolerance versus wild-type plants ([6]; P321A plants, highest dose applied): 40 fold
Injury evaluation ([6]; 1.56 g/ha): 0%
Injury evaluation ([6]; 3.125 g/ha): 0%
Injury evaluation ([6]; 6.25 g/ha): 2%
Injury evaluation ([6]; 12.5 g/ha): 2.5%
increased tolerance versus wild-type plants ([7]; HvHPPD L320H plants, dose of 3.125 g/ha): ~20 fold
Injury evaluation ([7]; 1.56 g/ha): 0%
Injury evaluation ([7]; 3.125 g/ha): 5%
Injury evaluation ([7]; 6.25 g/ha): 20%
Injury evaluation ([7]; 12.5 g/ha): 27%
